Earlier results in patent US20190021385A1, “ORALLY DISSOLVABLE COMPOSITIONS FOR NUTRITION SUPPLEMENTATION” (Exeltis USA, Inc., priority 2017, published 2019).

Settings: intake of about 1000 IU per day, all adults; Bischoff-Ferrari 2008

C=C1CC[C@H](O)C/C1=C/C=C1\CCC[C@]2(C)[C@@H]([C@H](C)CCCC(C)C)CC[C@@H]12 [vitamin D3, cholecalciferol]
share of the population brought up to the 30 ng/ml serum range for 25-hydroxyvitamin D: at least 50%
